# Assay: Test 1: maximal solubility of an active (solo) in a solvent system, visual observation
# Assay type: physicochemical
# Conditions: active dissolved in the solvent system; limpid with the naked eye
# Excerpt: The maximal solubility of an active or a combo of actives in a solvent system is characterized by visual observation. At a given concentration, if the mixture is limpid (with the naked eye), the active ingredient(s) is (are) considered to be soluble in the solvent system at this concentration. However, if a sedimentation of the active ingredient(s) appears, it is not soluble anymore in the solvent system and the maximal solubility is reached. The maximal solubility is thus defined as the maximum amount of active ingredient(s) that can be dissolved in the solvent system, equal to the amount at which the mixture remains limpid (with the naked eye). Each active ingredient or combo is added little by little in different solvent systems. The solutions are magnetically stirred until complete dissolution. Then an additional amount of active ingredient is added and this operation is repeated until the last part of active ingredient added could not be dissolved anymore, taking care to stir the solution after each addition of active ingredient.
Compound,maximal solubility of Difenoconazole,maximal solubility of Picoxystrobin,maximal solubility of Pinoxaden
"CCCCOC(=O)CCC(C)=O [GFbio ReSolv 200, n-butyl levulinate]",44.5 g/100 g of solvent,27.3 g/100 g of solvent,11.4 g/100 g of solvent
"COC(=O)C(C)CCC(=O)N(C)C (stereo not drawn) [Rhodiasolv ® Polarclean, methyl-5-(dimethylamino)-2-methyl-5-oxopentanoate]",65.5 g/100 g of solvent,43.9 g/100 g of solvent,13.0 g/100 g of solvent
